Measured values taken from PubChem BioAssay (NCI).
Where “and” joins values, the source holds several entries; their conditions need not be identical. Identical values can stand only once.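 Assay format: 96-well plates, 48-hour exposure. GI50: concentration for 50% inhibition of growth. TGI: concentration producing complete growth inhibition.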

How the values were obtained:
Test in all cases: NCI tumour cell line growth inhibition, 48 h
[1] = test system: DU-145 prostate
[2] = test system: SK-OV-3 ovarian
[3] = test system: UACC-257 melanoma
[4] = test system: A498 renal
[5] = test system: BT-549 breast
[6] = test system: PC-3 prostate
[7] = test system: 786-0 renal
[8] = test system: HL-60(TB) leukemia
[9] = test system: UACC-62 melanoma
[10] = test system: HS 578T breast

Structure (SMILES)	TGI [1]	TGI [2]	TGI [3]	TGI [4]	TGI [5]	TGI [6]	TGI [7]	TGI [8] [µM]	TGI [9]	TGI [10]	GI50 [1] [µM]	GI50 [2] [µM]	GI50 [3] [µM]	GI50 [4] [µM]	GI50 [5] [µM]	GI50 [6] [µM]	GI50 [7] [µM]	GI50 [8] [µM]	GI50 [9] [µM]	GI50 [10] [µM]
OCCCN=C1CCCCC1	> 100 µM	> 100 µM	> 100 µM	> 100 µM	> 100 µM	> 100 µM	> 100 µM	> 100	> 100 µM	> 100 µM										
COc1cc2ncn(-c3cc(OCc4ccccc4C(F)(F)F)c(C(N)=O)s3)c2cc1OC	0.407 µM	9.09 µM	> 25 µM	5.2 µM	> 19.5 µM	> 25 µM	22.5 µM	> 25	> 8.39 µM	> 8.59 µM	0.0924	0.251	> 5.96	0.186	1.64	0.214	1.56	0.0361	0.168	0.576
O=[N+]([O-])c1cccc(/C=N/Nc2ccc3ccccc3n2)c1O	17.7 µM	11.1 µM	7.67 µM	> 66.9 µM	37.9 µM	56.7 µM	12.7 µM	3.13	20.2 µM	> 88.6 µM										
S=c1ssnc1-c1cc2ccccc2o1	20.4 µM	39.2 µM	20.5 µM	38.8 µM	27.7 µM	24.2 µM	34.8 µM	> 100	29.4 µM	80.7 µM	7.35	18.7	6.09	20	13.8	3.82	16.5	14	15.5	18.5
Clc1ccc2c(NCCNc3nc(N4CCOCC4)nc4ccccc34)ccnc2c1	17 µM	3.85 µM	4.33 µM	4.62 µM	4.69 µM	17.1 µM	4.95 µM	3.12	3.75 µM	7.71 µM	4.99	1.85	2.07	1.87	2.07	4.5	1.79	1.09	1.94	2.58
Cn1c(=O)c(-c2ccccc2Cl)cc2cnc(NC3CCOCC3)nc21	> 25 µM	> 25 µM	> 25 µM	15.5 µM	> 25 µM	> 25 µM	> 25 µM	> 25	> 25 µM	> 25 µM	12.3	8.89	14.8	3.34	> 25	21.4	13.1	10.5	6.37	9.12
COc1cc2c(c(OC)c1OC)-c1cc(I)c(O)cc1[C@@H](NC(C)=O)CC2	0.292 µM	> 65.8 µM	> 100 µM	5.5 µM	2.95 µM	> 100 µM	> 100 µM	0.069	> 100 µM		0.0398	0.0476	49.1	0.0459	0.134	0.0395	0.0614	0.0254	0.0448	0.029
CC1(C)CC(O)CC(C)(C)N1O	> 100 µM	> 100 µM	> 100 µM	> 100 µM	> 100 µM	> 100 µM	> 100 µM	> 100	> 100 µM	> 100 µM								> 100		> 100
COC(=O)[C@@]12OC[C@]34[C@H]([C@@H](O)[C@@H]1O)[C@@]1(C)CC(=O)C(O)=C(C)[C@@H]1C[C@H]3OC(=O)[C@H](OC(=O)/C=C(\C)C(C)C)[C@@H]24	0.0451 µM and 0.0293 µM	0.0254 µM and 0.175 µM	0.0316 µM and 0.0305 µM	0.0109 µM and 0.022 µM	0.06 µM and 0.0156 µM and 0.0214 µM	0.0512 µM and 0.0128 µM and 0.028 µM	0.072 µM and < 0.012 µM and 0.0429 µM	0.00583	0.0131 µM and 0.023 µM	0.0209 µM and 0.0273 µM	0.02			0.00487	0.0262	0.02	0.0217			0.02
CC(C)(C)N/N=C(/Cc1nc2c3c(ccc2[nH]c1=O)C(=O)c1ccccc1C3=O)C(=O)NC1=C(Cl)C(=O)c2ccccc2C1=O	> 100 µM	> 100 µM	> 100 µM	> 100 µM	> 100 µM	> 100 µM	> 100 µM	> 100	> 100 µM	79.8 µM										
COc1cc(N=Nc2cc(Cc3ccc(N(C)C)cc3)c(N)cc2N(C)C)c2ncccc2c1	2.17 µM	8.17 µM	5.22 µM	3.07 µM	5.63 µM	3.03 µM	2.25 µM	1.36	1.83 µM	2.35 µM	0.59	0.406	0.438	0.809	1.41	0.293	1.01	0.267	0.42	0.473
CCn1cc(C(=O)O)c(=O)c2cc(F)c(N3CCN(S(=O)(=O)c4ccc(Cl)cc4Cl)CC3)cc21	6.75 µM	8.94 µM	7.93 µM	30 µM	7.89 µM	10.7 µM	14.9 µM	5.15	3.42 µM	7.66 µM	2.81	3	2.65	3	2.64	2.43	3.19	2.22	1.62	2.53
COc1cc(-c2nc(-c3ccccc3)c(-c3ccccc3)[nH]2)cc(OC)c1O	32.1 µM	47.8 µM	44.8 µM	24.7 µM	39.5 µM	50.2 µM	44 µM	> 100	29.6 µM	52.9 µM	17	23.1	21.7	0.0762	19.5	17.9	19.9	31.5	15.2	19.4
O=c1c(I)c[nH]cc1I	> 100 µM	> 100 µM	> 100 µM	> 100 µM	> 100 µM	> 100 µM	> 100 µM	> 100	> 100 µM	> 100 µM	> 100	> 100	> 100	> 100	> 100	> 100	> 100	> 100	> 100	> 100
